These results are taken from patent US20240238218A1, “[…] A […] ACTIVE COMPOUND AND METHOD OF PREPARATION THEREOF” (GW Research Limited, priority 2021, published 2024).

The subject of series [1] is mouse model of generalised seizure (tonic hind limb extensor convulsions). Put plainly: mini-MEST (maximal electroshock seizure threshold, minimal sample sizes) test in the mouse. As to conditions: 2.5 mg/kg i.p., 30 min post dose. How it is done: The maximal electroshock seizure threshold (MEST) test is widely utilized preclinically to evaluate pro- or anti-convulsant properties of test compounds (Loscher et al., 1991).
(§1) In the MEST test the ability of a drug to alter the seizure threshold current required to induce hind limb tonic extensor convulsions is measured according to an “up and down” method of shock titration (Kimball et al., 1957). An increase in seizure threshold is indicative of anti-convulsant effect.
(§2) The ability of a test compound to alter the stimulus intensity, expressed as current (mA), required to induce the presence of tonic hind limb extensor convulsions, is assessed in the MEST.
(§3) All animals were weighed at the beginning of the study and randomly assigned to treatment groups based on a mean distribution of body weight across groups.
The first animal within a treatment group was given a shock at the expected or estimated CC50 current. For subsequent animals, the current was lowered or raised depending on the convulsions outcome from the preceding animal in log scale intervals.
(§4) Data generated from each treatment group were used to calculate the CC50±SEM values for the treatment group.
Vehicle: (5% ethanol, 10% solutol in 85% Saline) was prepared as follows: 1 mL of ethanol, 2 mL of solutol were warmed to 60° C., in 17 mL of saline (1:2:17).
The test compound, described herein as Compound I, is as shown as Formula I. Test compound was administered at 50 mg/kg (i.p.) in a 1:2:17 ethanol:solutol:0.9% saline formulation.
(§5) The data for each treatment group were recorded as the number of +'s and 0's at each current level employed and this information is then used to calculate the CC50 value (current required for 50% of the animals to show seizure behaviour)±standard error.
(§6) Test compound effects were also calculated as percentage change in CC50 from the vehicle control group.
(§7) Significant difference between drug-treated animals and controls were assessed according to Litchfield and Wilcoxon (1949).

Series [2] has the same test system. Put plainly: Maximal electroshock seizure threshold (MEST) test in the mouse. Conditions: 2.5 mg/kg i.p., 30 min post dose. How it is done:
The efficacy of the novel resorcinol according to the compound of Formula I was tested in a mouse model of generalised seizure, the maximal electroshock seizure threshold (MEST) test.
as §1, §2, §3
The first animal within a treatment group was given a shock at the expected or estimated CC50 current. For subsequent animals, the current was lowered or raised depending on the convulsions outcome from the preceding animal, in intervals of 5 mA.
as §4
Vehicle: (5% ethanol, 5% Kolliphor® EL, 90% Saline) was prepared as follows: 2 mL of ethanol, 2 mL of Kolliphor® EL were warmed to 60° C., in 36 mL of saline (1:1:18).
The test compound, described herein as Compound I, is as shown as Formula I. Test compound was administered at 1, 5, 20, 50, 100 and 200 mg/kg (i.p.) in a 1:2:17 ethanol:solutol:0.9% saline formulation.
as §5, §6, §7
For orientation: The maximal electroshock test induces tonic seizures with an electrical stimulus.

In series [3] the test system is DBA/2 mice. Put plainly: DBA/2 mouse audiogenic seizure test. The class given is in vivo. Conditions: 180 mg/kg i.p. The text has this: The DBA/2 audiogenic seizure test, which detects anticonvulsant activity, follows that described by Dürmüller et al. (NeuroReport, vol. 4, no. 6, pages 683-686, 1993).
60 male DBA/2 mice (3-4 weeks old) were included in the experiment (weight range 8-11 g at the beginning of the experiment). Animals were acclimatized to the test facility for 1 day after delivery and randomly housed in groups of 5 in macrolon cages on wood litter with free access to food and water.
Mice were individually transferred (at 3-5 minutes intervals) from the preparation room into an adjacent experimental room and body temperature was measured using a rectal thermometer. Immediately after, they were placed in a Plexiglas jar (Diameter=40 cm; Height=35 cm) mounted with an electric bell. Upon activating the bell, the occurrences and latencies to wild running fits, clonic and tonic seizures were measured. Deaths were also recorded. The bell was activated until a tonic seizure occured or for a maximum of 60 seconds.
The experiment included 6 groups (10 mice were studied per group). Experimenters were blinded to the treatment groups.
The test substance was evaluated at 4 doses, administered i.p. (10 mL/kg) 30 or 60 minutes before the test, and compared with a vehicle control group. Doses and pre-treatment times were based on previous pharmacokinetic data.
(§8) Test compound: Compound I dissolved in 5% ethanol, 10% Kolliphor HS15, 85% physiological saline.
(§9) Vehicle control: 5% ethanol, 10% Kolliphor HS15, 85% physiological saline.
Reference: Valproate (180 mg/kg), dissolved in 5% ethanol, 10% Kolliphor HS15, 85% physiological saline.
Quantitative data (latencies) with the test substance were analyzed by comparing treated groups with vehicle control using Kruskal-Wallis test followed by Dunn's multiple comparisons test. Quantitative data with the reference substance were analyzed using Mann-Whitney U test.
Quantal data (frequencies) were analyzed by comparing treated groups with vehicle control using Fisher's Exact Probability tests.

In series [4] the test system is RjOrl: Swiss mice. Put plainly: Mouse 6 Hz (44 mA) psychomotor seizure test. The class given is in vivo. As to conditions: 300 mg/kg i.p.
Source text: The 6 Hz Psychomotor Test, which detects anticonvulsant activity, follows that described by Brown et al. (J. Pharmacol. Exp. Ther. 107, 273-283, 1953).
Male RjOrl: Swiss mice, 5 weeks old, weighing 28-38 g at the beginning of the experiment. Animals were acclimatized to the test facility for at least 5 days after delivery and randomly housed in groups of 3-4 in macrolon cages on wood litter with free access to food and water.
Before transcorneal stimulation, a drop of tetracaine solution (2%) was applied on each eye of the mouse for local anesthesia. Between 1-10 minutes later, at the pre-treatment time specified for the test compound, the mice were administered a rectangular current (44 mA, rectangular pulse: 0.2 ms pulse width, 3 s duration, 6 Hz) via corneal electrodes connected to a constant current shock generator.
The number of seizures as reflected by forelimb clonus were recorded immediately after current administration. Forelimb clonus was scored as absent (0=no forelimb clonus), mild (1=clonus with one forelimb) and strong (2=clonus with both forelimbs).
[…] The experimenters were blinded to the treatment. The cages were randomly assigned to a treatment code, each designating one treatment group.
Compound I was administered intraperitoneally at 20 and 50 mg/kg, 30 minutes before the test, and at 100 and 200 mg/kg, 60 minutes before the test and were compared with the vehicle control (5% ethanol, 10% […], 85% physiological saline).
Valproate (300 mg/kg i.p.), administered 30 minutes before the test, was used as reference substance and was compared with the vehicle control (5% ethanol, 10% Kolliphor HS15, 85% physiological saline).
as §8, §9
Reference: Valproate (300 mg/kg), dissolved in 5% ethanol, 10% Kolliphor HS15, 85% physiological saline.
Data were assumed to be non-normally distributed based on validation data, therefore non-parametric tests were utilized. Quantitative data (scores) with the test substance were analyzed by comparing treated groups with the corresponding vehicle control using Kruskal-Wallis test with Dunn's multiple comparisons test when the Kruskal-Wallis Test was significant. Quantitative data with the reference substance was analysed using Mann-Whitney U test.

Where [5] appears, read: 30 min before the test, bell maximum 60 seconds.
Where [6] appears, read: 30 min before the test, listed as valproate.

Consider `CN1C(=O)CN=C(c2ccccc2)c2cc(Cl)ccc21` [Diazepam, diazepam, reference compound], for which the “% change from vehicle (CC50)” value in series [1] came out at 279%; in series [2], 449%.
`CCCC(CCC)C(=O)O` [Valproate, reference compound]: the Adverse signs result in series [3] was “No adverse signs were noted”. In series [3] (30 min before the test), the “Clonic convulsion, Presence, %” value stood at 0%; the “Clonic convulsion, Presence, Compared with Vehicle (i.p.) %” value is listed as −100%; the “Clonic convulsion, Presence, Total” value is listed as 0/10; the “Death, Presence, %” value turned out to be 0%. Also, in series [3] (30 min before the test), the “Death, Presence, Compared with Vehicle (i.p.) %” value is reported as −100%; the “Death, Presence, Total” value is reported as 0/10; the “Tonic extension, Presence, %” value turned out to be 0%; the “Tonic extension, Presence, Compared with Vehicle (i.p.) %” value is listed as −100%. Also, in series [3] (30 min before the test), the “Tonic extension, Presence, Total” value is 0/10; the “Wild running, Presence, %” value is recorded as 0%; the “Wild running, Presence, Compared with Vehicle (i.p.) %” value was −100%; the “Wild running, Presence, Total” value was 0/10. For the same molecule, in series [3] (setting [5]), the “Clonic convulsion, Latency (s) Median” value is 60.0 s; the “Tonic extension, Latency (s) Median” value is listed as 60.0 s; the “Wild running, Latency (s) Median” value is recorded as 60.0 s. Moreover, in series [3] (setting [6]), the “Clonic convulsion, Presence, Compared with Vehicle (i.p.) %” value is −100%; the “Tonic extension, Presence, Compared with Vehicle (i.p.) %” value is −100%; the “Wild running, Presence, Compared with Vehicle (i.p.) %” value is −100%. Further, the “Slight sedation (mice affected)” value in series [4] is recorded as “One mouse out of the 15 tested”. In series [4] (30 minutes before the test), the “Forelimb clonus, Compared with Vehicle B (i.p.) %” value was −88%. In addition, in series [4] (30 minutes before the test, listed as valproate), the “Forelimb clonus, Compared with Vehicle B (i.p.) %” value is −88%. Besides, in series [4] (30 minutes before the test, score 0-2), the “Forelimb clonus (mean ± s.e.m.)” value is reported as 0.1 ± 0.1.
